{
  "source": "patent US20020039780A1",
  "about": "“Salicyclic acid inducible genes and promoters” (priority 1998, published 2002)",
  "key": {"[1]": {"system": "G3-2", "test": "Northern analysis of mRNA accumulation in cultured tobacco cells", "format": "cell-based", "experimental": "(§1) FIG. 1. Four classes of SA-induced early genes. Northern analysis of genes identified by differential display. Gel-purified DNA fragments produced by ddPCR were either used directly for random-primed labeling and probing of Northern filters (e.g. C7-1, C6-1, and G9-2) or first subcloned and released by restriction digest. Each lane contains 1 μg of poly(A) mRNA from cultured tobacco cells treated with (1) H2O, 4 hr; (2) 200 μM SA, 4 hr; (3) 71 μM CHX, 5 hr; (4) 71 μM CHX, 5 hr plus 200 μM SA after 1 hr (4 hr total); (5) 20 μM SA, 2 hr; (7) 200 μM SA, 8 hr. One blot was sequentially hybridized with the G1-1 fragment and the β-ATPase gene as a loading control probe. response classes (I-IV) are indicated on the left of the autoradiograms.\nFIG. 2. Time course of SA-induced gene expression. Northern analysis of representative differential display genes following treatment of cultured tobacco cells with SA for the indicated time (in hours, except lanes 2-4, which refer to 10, 20, and 30 min.). Twenty micrograms of total RNA was loaded per lane. Blots were hybridized with ddPCR fragments indicated at right or with the β-ATPase gene as a loading control probe. Autoradiogram exposure times were optimized for each gene. The signal for C18-1 was enhanced by using the full length cDNA as probe. Labels on left indicate response class.\n(§2) FIG. 4. Specificity of induction among SA analogs and other signalling compounds. Northern analysis of representative differential display genes following treatment of tobacco cells with 100 μM or 1 mM (left and right side of triangles, respectively) of the following chemicals for 2-2.5 hr: salicylic acid (SA, lanes 4 and 5), acetylSA (ASA, lanes 6 and 7), benzoic acid (BA, lanes 8 and 9), 4-hydroxybenzoic (4HBA, lanes 10 and 11), thiamine (thia, lanes 12 and 13), methyljasmonate (MJ, lanes 14 and 15), abscisic acid (ABA, lanes 16 and 17), or 2,4-dichlorophenoxyacetic acid (2,4-D, lanes 18 and 19). Control treatments are H2O (H, lane 1), 1% ethanol (E, solvent concentration in MJ treatments, lane 2), or 1% DMSO (D, solvent concentration in 2,4D treatments, lane 3). Blots were hybridized with ddPCR fragments indicated at right or with the β-ATPase geneas a loading control probe. Autoradiogram exposure times were optimized for each gene. The signal for C18-1 was enhanced by using the full length cDNA as probe. Labels on left indicate response class.\n(§3) Differential display technology (Liang, P. and Pardee, A. B., Science 257: 967-971, 1992) was used to identify genes activated in the presence of SA, CHX and both. Therefore the absence or presence of SA, induction at 3 timepoints of SA-treatment, 2 different concentrations of SA and the effect of addition of CHX were measured. Seven treatments in total were performed. Treatment of tobacco BY-2 suspension cells and leaves and differential display PCR reactions were performed as described (Horvath and Chua (1996), Plant Mol. Biol. 31, 1061-1072).\nThe specificity for induction by SA was tested by treating tobacco cells with a range of SA analogs and plant signalling compounds at 0.1 and 1 mM for approximately 2.5 h. […] Among the SA-analogs, acetyl-SA (ASA, aspirin), benzoic acid (BA) and 4-hydroxybenzoic acid (4HBA), responses generally reflected the ability of the analog to substitute for SA in other cellular responses (Yalpani, N. et al., Plant Cell 3: 809-818, 1991, Yang, Y. and Klessig, D. F., Proc. Natl. Acad. Sci. 93, 14972-14977, 1996). […] Several genes, including those for proteinase inhibitors and lipoxygenase (Hildmann, T. et al., Plant Cell 4: 1157-1170, 1992; Melan, M. A. et al., Plant Physiol. 101: 441-450, 1993; Xu, D. et al., Plant Mol. Biol. 22: 573-588, 1993) are known to be under dual regulation by MJ and ABA. A similar mode of regulation may be in effect with C14-1b. the auxin 2,4-D induced several genes including C18-1/EREBP1 and C6-2."}, "[2]": {"system": "early SA-induced genes identified by differential display", "test": "Northern analysis of differential display genes in cultured tobacco cells", "format": "cell-based", "experimental": "as §1, with “Four classes of SA-induced early genes.” left out, “hr.” for “hr. One blot was sequentially hybridized with the G1-1 fragment and the β-ATPase gene as a loading control probe. response classes (I-IV) are indicated on the left of the autoradiograms.”\nas §2, with “The signal for C18-1 was enhanced by using the full length cDNA as probe.” left out\nas §3\nThe specificity for induction by SA was tested by treating tobacco cells with a range of SA analogs and plant signalling compounds at 0.1 and 1 mM for approximately 2.5 h. […] Several genes, including those for proteinase inhibitors and lipoxygenase (Hildmann, T. et al., Plant Cell 4: 1157-1170, 1992; Melan, M. A. et al., Plant Physiol. 101: 441-450, 1993; Xu, D. et al., Plant Mol. Biol. 22: 573-588, 1993) are known to be under dual regulation by MJ and ABA."}, "[3]": {"system": "G8-1", "test": "Northern analysis of mRNA accumulation in cultured tobacco cells", "format": "cell-based", "conditions": "SA 0.1 μM to 2 mM"}, "[4]": {"system": "G1-1/EGT", "conditions": "SA; previously shown (Horvath and Chua, 1996); cited from earlier work"}},
  "data": [
    {"smiles": "O=C(O)c1ccccc1O", "note": "[SA, salicylic acid]", "values": [
      {"measurement": "G3-2 mRNA levels at 20 μM SA", "setting": "[1]; 20 μM SA", "result": "comparable to those at 200 μM"},
      {"measurement": "G3-2 induction at 0.1 mM versus 1 mM", "setting": "[1]; 0.1 and 1 mM, approximately 2.5 h", "result": "equal or greater induction at 0.1 mM versus 1 mM"},
      {"measurement": "G3-2 mRNA levels between 2 and 12 h", "setting": "[1]; SA time course", "result": "increased steadily"},
      {"measurement": "time before which G3-2 is not detectably activated", "setting": "[1]; SA time course", "result": "≥ 2", "unit": "h"},
      {"measurement": "sensitivity of G3-2 to SA", "setting": "[1]; data not shown", "result": "similarly sensitive as G8-1"},
      {"measurement": "induction of most of the genes at 20 μM SA", "setting": "[2]; 20 μM SA", "result": "little or none"},
      {"measurement": "induction of most of the genes at 200 μM SA", "setting": "[2]; 200 μM SA", "result": "clear induction"},
      {"measurement": "EC50", "setting": "[3]; Nicotiana tabacum, tobacco cells, 2-2.5 hr, read-out: concentration of SA required for half of the maximum level of G8-1 expression", "result": "~1", "unit": "µM"},
      {"measurement": "response of G8-1 expression to SA concentration range", "setting": "[3]", "result": "activated over a large SA concentration range"},
      {"measurement": "time at which G1-1/EGT is induced", "setting": "[4]", "result": "20 to 30", "unit": "min"},
      {"measurement": "time of peak G1-1/EGT", "setting": "[4]", "result": 3, "unit": "h"}
    ]}
  ]
}
